The values that follow come from US10307426B2, “Therapeutic compounds and compositions, and methods of use thereof” (Genentech, Inc., priority 2018, dated 2019).

Like-named read-outs stand apart in the source and are kept apart here.

Assay [1] has as its system JAK1-dependent STAT6 phosphorylation downstream of IL-13 stimulation in BEAS-2B human bronchial epithelial cells. Description: JAK1 pathway assay in cell lines: IL-13 stimulated STAT6 phosphorylation in BEAS-2B cells (MSD). It counts as cell-based. To be noted: 1 hr compound incubation, IL-13 stimulation 15 min, read-out: IL-13 p-STAT6 BEAS-2B IC50. How it is done:
Inhibitor potency (EC50) was determined in cell-based assays designed to measure JAK1 dependent STAT phosphorylation. As noted above, inhibition of IL-4, IL-13, and IL-9 signaling by blocking the Jak/Stat signaling pathway can alleviate asthmatic symptoms in pre-clinical lung inflammation models (Mathew et al., 2001, J Exp Med 193(9): 1087-1096; Kudlacz et. al., 2008, Eur J. Pharmacol 582(1-3): 154-161).
In one assay approach, TF-1 human erythroleukemia cells obtained from the American Type Culture Collection (ATCC; Manassas, Va.) were used to measure JAK1-dependent STAT6 phosphorylation downstream of IL-13 stimulation. Prior to use in the assays, TF-1 cells were starved of GM-CSF overnight in OptiMEM medium (Life Technologies, Grand Island, N.Y.) supplemented with 0.5% charcoal/dextran stripped fetal bovine serum (FBS), 0.1 mM non-essential amino acids (NEAA), and 1 mM sodium pyruvate. The assays were run in 384-well plates in serum-free OptiMEM medium using 300,000 cells per well. In a second assay approach, BEAS-2B human bronchial epithelial cells obtained from ATCC were plated at 100,000 cells per well of a 96-well plate one day prior to the experiment. The BEAS-2B assay was run in complete growth medium (bronchial epithelial basal medium plus bulletkit; Lonza; Basel, Switzerland).
Test compounds were serially diluted 1:2 in DMSO and then diluted 1:50 in medium just before use. Diluted compounds were added to the cells, for a final DMSO concentration of 0.2%, and incubated for 30 min (for the TF-1 assay) or 1 hr (for the BEAS-2B assay) at 37° C. Then, cells were stimulated with human recombinant cytokine at their respective EC90 concentrations, as previously determined for each individual lot. Cells were stimulated with IL-13 (R&D Systems, Minneapolis, Minn.) for 15 min at 37° C. The TF-1 cell reactions were stopped by the direct addition of 10× lysis buffer (Cell Signaling Technologies, Danvers, Mass.), whereas the BEAS-2B cell incubations were halted by the removal of medium and addition of 1× lysis buffer. The resultant samples were frozen in the plates at −80° C. Compound mediated inhibition of STAT6 phosphorylation was measured in the cell lysates using MesoScale Discovery (MSD) technology (Gaithersburg, Md.). EC50 values were determined as the concentration of compound required for 50% inhibition of STAT phosphorylation relative to that measured for the DMSO control.

Assay [2] concerns the target isolated recombinant JAK1 kinase domain (Homo sapiens (Human), UniProt P23458). In words: JAK1 enzyme assay (Caliper LabChip, peptide phosphorylation, Ki). It counts as biochemical. Particulars: 1.5 nM JAK1, ATP 25 μM, Morrison tight binding model. How it is done: (§1) The activity of the isolated recombinant JAK1 and JAK2 kinase domain was measured by monitoring phosphorylation of a peptide derived from JAK3 (Val-Ala-Leu-Val-Asp-Gly-Tyr-Phe-Arg-Leu-Thr-Thr, fluorescently labeled on the N-terminus with 5-carboxyfluorescein) using the Caliper LabChip® technology (Caliper Life Sciences, Hopkinton, Mass.). […] Reactions were incubated at 22° C. in 384-well polypropylene microtiter plates for 30 minutes and then stopped by addition of 25 μL of an EDTA containing solution (100 mM HEPES buffer (pH 7.2), 0.015% Brij-35, 150 mM EDTA), resulting in a final EDTA concentration of 50 mM. After termination of the kinase reaction, the proportion of phosphorylated product was determined as a fraction of total peptide substrate using the Caliper LabChip® 3000 according to the manufacturer's specifications. Ki values were then determined using the Morrison tight binding model (Morrison, J. F., Biochim. Biophys. Acta. 185:269-296 (1969); William, J. W. and Morrison, J. F., Meth. Enzymol., 63:437-467 (1979)) modified for ATP-competitive inhibition [Ki=Ki,app/(1+[ATP]/Km,app)].

For assay [3], the target named is isolated recombinant JAK2 kinase domain (Homo sapiens (Human), UniProt O60674). In words: JAK2 enzyme assay (Caliper LabChip, peptide phosphorylation, Ki). It counts as biochemical. To be noted: 0.2 nM JAK2, ATP 25 μM, Morrison tight binding model. How it is done:
as §1

Sequence of isolated recombinant JAK1 kinase domain (P23458 875-1153): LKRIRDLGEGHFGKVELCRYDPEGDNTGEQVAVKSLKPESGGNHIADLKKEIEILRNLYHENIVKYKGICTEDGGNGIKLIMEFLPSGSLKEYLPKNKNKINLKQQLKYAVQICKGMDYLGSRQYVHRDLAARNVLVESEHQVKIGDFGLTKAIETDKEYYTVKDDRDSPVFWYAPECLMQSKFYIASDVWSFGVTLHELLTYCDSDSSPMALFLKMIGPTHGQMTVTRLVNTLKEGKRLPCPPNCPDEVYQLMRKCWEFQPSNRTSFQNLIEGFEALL
Sequence of isolated recombinant JAK2 kinase domain (O60674 849-1124): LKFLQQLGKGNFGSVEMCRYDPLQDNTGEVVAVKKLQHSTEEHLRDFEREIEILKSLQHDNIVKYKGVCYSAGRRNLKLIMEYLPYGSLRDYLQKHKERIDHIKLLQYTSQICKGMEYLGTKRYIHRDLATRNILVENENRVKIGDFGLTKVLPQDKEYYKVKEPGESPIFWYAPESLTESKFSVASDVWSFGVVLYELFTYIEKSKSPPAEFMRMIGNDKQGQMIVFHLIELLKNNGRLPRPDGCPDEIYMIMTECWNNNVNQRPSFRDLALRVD

The IC50 is the concentration that inhibits the measured activity by half. The Ki is a measure of affinity in units of concentration, obtained from inhibition or displacement. In the case of `CN(C)C(=O)Cn1cc(NC(=O)c2cnn3cccnc23)c(-c2cc(C(F)CF)ccc2OC(F)F)n1` (single isomer, unassigned) [Example 4], the IC50 in assay [1] turned out to be 83.8 nM. Besides, the Ki in assay [2] amounted to 5.84 nM; in assay [3], 3.26 nM.
Turning to `CN(C)C(=O)Cn1cc(NC(=O)c2cnn3cccnc23)c(-c2cc(C(F)CF)ccc2OC(F)F)n1` (single isomer, unassigned) [Example 5], in assay [1], the IC50 was 6.7 nM. In addition, the Ki came out at 0.17 nM in assay [2] and 0.38 nM in assay [3].
In the same order, the values of `CC(C(=O)N(C)C)n1cc(NC(=O)c2cnn3cccnc23)c(-c2cc(Cl)ccc2OC(F)F)n1` (single isomer, unassigned) [Example 10] are 16.6 nM, 0.41 nM and 0.83 nM.
In the same order, the values of `CC(C(=O)N(C)C)n1cc(NC(=O)c2cnn3cccnc23)c(-c2cc(Cl)ccc2OC(F)F)n1` (single isomer, unassigned) [Example 11] are 41.8 nM, 0.58 nM and 1.26 nM.
In the case of `CN(C)C(=O)Cn1cc(NC(=O)c2cnn3cccnc23)c(-c2cc([C@@H]3C[C@H]3C#N)ccc2OC(F)F)n1` [Example 1, N-(3-(5-((1R,2R)-2-cyanocyclopropyl)-2-(difluoromethoxy)phenyl)-1-(2-(dimethylamino)-2-oxoethyl)-1H-pyrazol-4-yl)pyrazolo[1,5-a]pyrimidine-3-carboxamide], in assay [1] (Homo sapiens, BEAS-2B), the half-inhibitory concentration (IC50) was 9.9 nM. Further, the figures for the Ki in assay [2] and in assay [3] were 0.25 nM and 0.61 nM, respectively.
For `CN(C)C(=O)Cn1cc(NC(=O)c2cnn3cccnc23)c(-c2cc(I)ccc2OC(F)F)n1` [Example 2, N-[3-[2-(difluoromethoxy)-5-iodophenyl]-1-[(dimethylcarbamoyl)methyl]-1H-pyrazol-4-yl]pyrazolo[1,5-a]pyrimidine-3-carboxamide], the half-inhibitory concentration (IC50) in assay [1] (Homo sapiens, BEAS-2B) turned out to be 6 nM. For the same compound, the Ki in assay [2] was determined as 0.25 nM; in assay [3], 0.17 nM.
For `CN(C)C(=O)Cn1cc(NC(=O)c2c(N)nn3cccnc23)c(-c2cc(Cl)ccc2OC(F)F)n1` [Example 3, 2-amino-N-(3-(5-chloro-2-(difluoromethoxy)phenyl)-1-(2-(dimethylamino)-2-oxoethyl)-1H-pyrazol-4-yl)pyrazolo[1,5-a]pyrimidine-3-carboxamide], the IC50 in assay [1] (Homo sapiens, BEAS-2B) worked out at 10.3 nM. Further, the results for the Ki in assay [2] and in assay [3] were 0.34 nM and 0.77 nM, respectively.
In the same order, the values of `CN(C)C(=O)Cn1cc(NC(=O)c2cnn3cccnc23)c(-c2cc(C(F)F)ccc2OC(F)F)n1` [Example 6, N-(3-(2-(difluoromethoxy)-5-(difluoromethyl)phenyl)-1-(2(dimethylamino)-2-oxoethyl)-1H-pyrazol-4-yl)pyrazolo[1,5-a]pyrimidine-3-carboxamide] are 9.9 nM, 0.15 nM and 0.25 nM.
`CN(C)C(=O)Cn1cc(NC(=O)c2cnn3cccnc23)c(-c2cc(CC(F)F)ccc2OC(F)F)n1` [Example 7, N-(3-(5-(2,2-difluoroethyl)-2-(difluoromethoxy)phenyl)-1-(2-(dimethylamino)-2-oxoethyl)-1H-pyrazol-4-yl)pyrazolo[1,5-a]pyrimidine-3-carboxamide]: the IC50 in assay [1] (Homo sapiens, BEAS-2B) is 28.9 nM. For the same compound, the inhibition constant (Ki) in assay [2] is 0.52 nM; in assay [3] it was 1.15 nM.
In the same order, the values of `CN(C)C(=O)Cn1cc(NC(=O)c2cnn3cccnc23)c(-c2cc(Oc3ccc(C(=O)N(C)C)cc3)ccc2OC(F)F)n1` [Example 8, N-(3-(2-(difluoromethoxy)-5-(4-(dimethylcarbamoyl)phenoxy)phenyl)-1-(2-(dimethylamino)-2-oxoethyl)-1H-pyrazol-4-yl)pyrazolo[1,5-a]pyrimidine-3-carboxamide] are 43.9 nM, 0.83 nM and 1.81 nM.
Taken in the same sequence, the figures for `CN(C)C(=O)Cn1cc(NC(=O)c2cnn3cccnc23)c(-c2cc(CCF)ccc2OC(F)F)n1` [Example 9, N-(3-(2-(difluoromethoxy)-5-(2-fluoroethyl)phenyl)-1-(2-(dimethylamino)-2-oxoethyl)-1H-pyrazol-4-yl)pyrazolo[1,5-a]pyrimidine-3-carboxamide] were 269 nM, 0.97 nM and 1.92 nM.
Taken in the same sequence, the figures for `CN(C)C(=O)Cn1cc(NC(=O)c2cnn3cccnc23)c(-c2cc(Oc3ccc4c(c3)CNCC4)ccc2OC(F)F)n1` [Example 12, N-(3-(2-(difluoromethoxy)-5-((1,2,3,4-tetrahydroisoquinolin-7-yl)oxy)phenyl)-1-(2-(dimethylamino)-2-oxoethyl)-1H-pyrazol-4-yl)pyrazolo[1,5-a]pyrimidine-3-carboxamide] were 29.8 nM, 0.27 nM and 0.75 nM.
For the compound `C=Cc1ccc(OC(F)F)c(-c2nn(CC(=O)N(C)C)cc2NC(=O)c2cnn3cccnc23)c1` [Example 13, N-(3-(2-(difluoromethoxy)-5-vinylphenyl)-1-(2-(dimethylamino)-2-oxoethyl)-1H-pyrazol-4-yl)pyrazolo[1,5-a]pyrimidine-3-carboxamide], in assay [1] (Homo sapiens, BEAS-2B), the half-maximal inhibitory concentration (IC50) turned out to be 24.1 nM. The figures for the Ki in assay [2] and in assay [3] were 0.51 nM and 1.17 nM, respectively.
Take `CN(C)C(=O)Cn1cc(NC(=O)c2cnn3cccnc23)c(-c2cc(C3CC3)ccc2OC(F)F)n1` [Example 14, N-(3-(5-cyclopropyl-2-(difluoromethoxy)phenyl)-1-(2-(dimethylamino)-2-oxoethyl)-1H-pyrazol-4-yl)pyrazolo[1,5-a]pyrimidine-3-carboxamide]: in assay [1] (Homo sapiens, BEAS-2B), the IC50 was 47.3 nM. Moreover, the inhibition constant Ki in assay [2] was determined as 0.8 nM; in assay [3] it was 1.99 nM.
In the same order, the values of `CN(C)C(=O)Cn1cc(NC(=O)c2cnn3cccnc23)c(-c2cc(Br)ccc2OC(F)F)n1` [Example 15, N-(3-(5-bromo-2-(difluoromethoxy)phenyl)-1-(2-(dimethylamino)-2-oxoethyl)-1H-pyrazol-4-yl)pyrazolo[1,5-a]pyrimidine-3-carboxamide] are 14.3 nM, 0.32 nM and 0.43 nM.
Taken in the same sequence, the figures for `CN(C)C(=O)Cn1cc(NC(=O)c2cnn3cccnc23)c(-c2cc(Cl)ccc2OC(F)F)n1` [Example 16, N-(3-(5-chloro-2-(difluoromethoxy)phenyl)-1-(2-(dimethylamino)-2-oxoethyl)-1H-pyrazol-4-yl)pyrazolo[1,5-a]pyrimidine-3-carboxamide] were 33.4 nM, 0.65 nM and 1.02 nM.
As for `CN(C)C(=O)Cn1cc(NC(=O)c2cnn3cccnc23)c(-c2cc(OC(F)F)ccc2OC(F)F)n1` [Example 17, N-(3-(2,5-bis(difluoromethoxy)phenyl)-1-(2-(dimethylamino)-2-oxoethyl)-1H-pyrazol-4-yl)pyrazolo[1,5-a]pyrimidine-3-carboxamide], in assay [1] (Homo sapiens, BEAS-2B), the IC50 was 14.1 nM. Besides, the values for the Ki in assay [2] and in assay [3] were 0.26 nM and 0.72 nM, respectively.
As to `CN1CC(O)(c2cccc(Oc3ccc(OC(F)F)c(-c4nn(CC(=O)N(C)C)cc4NC(=O)c4cnn5cccnc45)c3)c2)C1` [Example 18, N-(3-(2-(difluoromethoxy)-5-(3-(3-hydroxy-1-methylazetidin-3-yl)phenoxy)phenyl)-1-(2-(dimethylamino)-2-oxoethyl)-1H-pyrazol-4-yl)pyrazolo[1,5-a]pyrimidine-3-carboxamide], the 50% inhibitory concentration (IC50) in assay [1] (Homo sapiens, BEAS-2B) was 285 nM. Also, the inhibition constant (Ki) worked out at 3.18 nM in assay [2] and 1.56 nM in assay [3].
